For one series, the species on record is Mus musculus. The series can be described thus: Inhibition of mouse allogenic mixed leukocyte response (MLR). It is filed as functional.
Series [1] concerns Rattus norvegicus. The series can be described thus: Compound was evaluated in vivo for the immunosuppressive activity on rat skin allograft at ip dose of 1 mg/Kg. It is filed as functional.
In series [2] the test system is Rattus norvegicus. The series can be described thus: Compound was evaluated in vivo for the immunosuppressive activity on rat skin allograft at ip dose of 10 mg/Kg. The class given is functional.
For series [3], the system named is Rattus norvegicus. The series can be described thus: Compound was evaluated in vivo for the immunosuppressive activity on rat skin allograft at ip dose of 3 mg/Kg. It is filed as functional.
Series [4] has as its system Rattus norvegicus. The series can be described thus: Compound was evaluated in vivo for the immunosuppressive activity on rat skin allograft at ip dose of 30 mg/Kg. It is filed as functional.
Series [5] concerns Rattus norvegicus. In words: Compound was evaluated in vivo for the immunosuppressive activity on rat skin allograft at ip dose of 0.1 mg/Kg. It is filed as functional.
Series [6] deals with Rattus norvegicus. The series can be described thus: Compound was evaluated in vivo for the immunosuppressive activity on rat skin allograft at ip dose of 0.3 mg/Kg. It is filed as functional.
The test system of series [7] is Rattus norvegicus. In words: Compound was evaluated in vivo for the immunosuppressive activity on rat skin allograft at ip dose of 10 mg/Kg; toxic (animals died). It is filed as ADME, organism-based.
For series [8], the system named is Rattus norvegicus. In words: Compound was evaluated in vivo for the immunosuppressive activity on rat skin allograft at ip dose of 0.03 mg/Kg. The class given is functional.
In series [9] the test system is Rattus norvegicus. In words: Compound was evaluated in vivo for the immunosuppressive activity on rat skin allograft at ip dose of 1 mg/Kg; toxic (animals died). It is filed as functional, organism-based.

A word on the IC50: it is the concentration that gives 50% inhibition. Low values mean inhibition by little substance, high ones a need for much substance.

Turning to `CCCCCCCCCCCCCCC(N)(CO)CO`, the IC50 in the series filed under Mus musculus was 5.9 nM.

`CCCCCCCCCCCCCCCCCCCCC(N)(CO)CO` came in with an IC50 in the series filed under Mus musculus of 190 nM.

In the series listed under Mus musculus, `CCCCCCCCCCCCCCCCCCCCCCC(N)(CO)CO` gave an IC50 of 1600 nM.

Turning to `C/C=C/C[C@@H](C)[C@@H](O)[C@H]1C(=O)N[C@@H](CC)C(=O)N(C)CC(=O)N(C)[C@@H](CC(C)C)C(=O)N[C@@H](C(C)C)C(=O)N(C)[C@@H](CC(C)C)C(=O)N[C@@H](C)C(=O)N[C@H](C)C(=O)N(C)[C@@H](CC(C)C)C(=O)N(C)[C@@H](CC(C)C)C(=O)N(C)[C@@H](C(C)C)C(=O)N1C` [CYCLOSPORINE], the MST was 7.3 days in the series with Rattus norvegicus [1], 15.2 days in the series with Rattus norvegicus [2], 10.8 days in the series with Rattus norvegicus [3] and 19.2 days in the series with Rattus norvegicus [4].

In turn, `CCCCCCC(O)CCCCCCCCC[C@@H](O)[C@H](O)C(N)(CO)CO` (some centres undefined) gave an IC50 in the series listed under Mus musculus of 1630 nM.

In the series listed under Mus musculus, `CCCCCCCCC(N)(CO)CO` yielded a half-inhibitory concentration (IC50) of 3700 nM.

`CCCCCCCCCCC(N)(CO)CO` returned an IC50 in the series listed under Mus musculus of 440 nM.

The compound `CCCCCCCCCCCCCCCC[C@@H](O)[C@H](O)C(N)(CO)CO` came in with an IC50 in the series filed under Mus musculus of 320 nM.

Turning to `CCCCCCCCCCCCCCCC(N)(CO)CO`, the MST was 14 days with Rattus norvegicus [5]; 33.5 days in the series on Rattus norvegicus [6]; 45.3 days in the series on Rattus norvegicus [1]; “Toxic (animals died)” in the series on Rattus norvegicus [7]; 57.8 days in the series on Rattus norvegicus [3]; 10.8 days in the series on Rattus norvegicus [8]. This compound came in with an IC50 in the series listed under Mus musculus of 2.9 nM.

As for `CCCCCCC(=O)CCCCCC/C=C/C[C@@H](O)[C@H](O)[C@@](N)(CO)C(=O)O` [MYRIOCIN], the MST entry in the series with Rattus norvegicus [9] was “Toxic (animals died)”; in the series with Rattus norvegicus [5], 9.2 days; in the series with Rattus norvegicus [6], 11.2 days; in the series on Rattus norvegicus [8], 7.8 days. The same compound showed an IC50 in the series listed under Mus musculus of 3 nM.

In the case of `CCCCCCCCCCCCCCCCCCC(N)C(=O)O` (centres undefined), the IC50 in the series listed under Mus musculus was found to be 130 nM.

Regarding `CCCCCCCCCCCCC/C=C/C[C@@H](O)[C@H](O)C(N)(CO)CO`, in the series filed under Mus musculus, the IC50 amounted to 56 nM.

Take `CCCCCCCCCCCCCC(N)(CO)CO`: in the series listed under Mus musculus, half-maximal inhibition (IC50) was put at 12 nM.

`CCCCCCCCCCCCC(N)(CO)CO`: the IC50 in the series filed under Mus musculus is 270 nM.

In the series filed under Mus musculus, `CCCCCCC(O)CCCCCC/C=C/C[C@@H](O)[C@H](O)C(N)(CO)CO` (some centres undefined) yielded an IC50 of 4.7 nM.

In the series filed under Mus musculus, `CCCCCCCCCCCCCCCCC(N)(CO)CO` gave an IC50 of 10 nM.

The values above are taken from ChEMBL document CHEMBL1128878, “Simple compounds, 2-alkyl-2-amino-1,3-propanediols have potent immunosuppressive activity” (Bioorg Med Chem Lett, 1995).
